The target of one test is T1, GVINP1 (Homo sapiens, UniProt Q7Z2Y8).
T1 construct: endogenous in cells; host or cells: intact HepG2 cells
In words: PISA thermal profiling, intact HepG2 cells. The test is classed as cell-based. The following applies: 30 µM, 60 min, n=3. The source says:
To further corroborate our findings, we next performed the proteome integral solubility alteration (PISA) assay in HepG2 human hepatoma cells that express high levels of CHKA. Conceptually building on the cellular thermal shift assay (CETSA) with mass spectrometry based detection,[19, 20] PISA leverages compound‐mediated stabilisation of target proteins without the need of chemical modification in intact cells. […]
carried out using REFMAC[9] and COOT,[10] and concluded when no improvements resulted for Rfree and Rwork values, and when density maps indicated no further changes were justified.
Choline Coupled Enzymatic Assay
CHKA (120 ng, 24 µg/ml) was arrayed (5 µL) into a 96 well semi-skirted real time PCR plate. 4-fold dilution series and vehicle controls (0.5% DMSO) were prepared in a separate plate. A further DMSO control was included for use with a no protein well control. […]
After mixing, bubbles were removed by centrifugation (1000 × g, 1 min) and absorbance read at 340 nm on a PheraSTAR FSX (BMG Labtech), reading every minute for 10 min. […]
by centrifugation at 30,000 × g for 20 min at 4 °C. The soluble fractions were collected to fresh tubes and further processed to be analysed with mass spectrometry. […]
Sample preparation for the quantification of metabolites by nuclear magnetic resonance (NMR) spectroscopy was performed as described previously.[13] […]

The target in the next test is CHKA (Homo sapiens, UniProt P35790). The test can be described thus: Differential scanning fluorimetry (DSF). The following applies: 10 µM compound, 2 µM CHKA. Details: host or cells: E. coli BL21(DE3). Format: binding. As to the method:
mM NaCl, 5% glycerol, 500 mM imidazole, 0.5% TCEP, pH 7.5), the eluent was concentrated, and further purified by size exclusion chromatography using a HiLoad 16/600 Superdex S200 column (Cytiva) pre-equilibrated in Buffer C (20 mM HEPES, 150 mM NaCl, pH 7.5). The resulting protein purity was assessed by SDS-PAGE, and protein identity was confirmed by tryptic digest analysis. Protein concentration was determined to be 35.5 mg/mL, and was calculated using a theoretical molar extinction coefficient of 58830 M-1cm-1 as determined by ProtParam.[5] […]
Differential Scanning Fluorimetry (DSF)
DSF buffer (20 mM HEPES, 150 mM NaCl, 0.5 mM TCEP, pH 7.5) containing 5x SYPRO Orange (Thermo Fisher Scientific) and CHKA (2 µM) was incubated with 10 µM compound at 2% DMSO final concentration in a 96-well semi-skirted real time PCR plate. Fluorescence was measured in each well over a 40-80 °C gradient using a Stratagen MX3005p qPCR instrument (Agilent Technologies). […]
Background: DSF heats the sample and reads unfolding from a dye or from intrinsic fluorescence.

T1 sequence (Q7Z2Y8 whole entry): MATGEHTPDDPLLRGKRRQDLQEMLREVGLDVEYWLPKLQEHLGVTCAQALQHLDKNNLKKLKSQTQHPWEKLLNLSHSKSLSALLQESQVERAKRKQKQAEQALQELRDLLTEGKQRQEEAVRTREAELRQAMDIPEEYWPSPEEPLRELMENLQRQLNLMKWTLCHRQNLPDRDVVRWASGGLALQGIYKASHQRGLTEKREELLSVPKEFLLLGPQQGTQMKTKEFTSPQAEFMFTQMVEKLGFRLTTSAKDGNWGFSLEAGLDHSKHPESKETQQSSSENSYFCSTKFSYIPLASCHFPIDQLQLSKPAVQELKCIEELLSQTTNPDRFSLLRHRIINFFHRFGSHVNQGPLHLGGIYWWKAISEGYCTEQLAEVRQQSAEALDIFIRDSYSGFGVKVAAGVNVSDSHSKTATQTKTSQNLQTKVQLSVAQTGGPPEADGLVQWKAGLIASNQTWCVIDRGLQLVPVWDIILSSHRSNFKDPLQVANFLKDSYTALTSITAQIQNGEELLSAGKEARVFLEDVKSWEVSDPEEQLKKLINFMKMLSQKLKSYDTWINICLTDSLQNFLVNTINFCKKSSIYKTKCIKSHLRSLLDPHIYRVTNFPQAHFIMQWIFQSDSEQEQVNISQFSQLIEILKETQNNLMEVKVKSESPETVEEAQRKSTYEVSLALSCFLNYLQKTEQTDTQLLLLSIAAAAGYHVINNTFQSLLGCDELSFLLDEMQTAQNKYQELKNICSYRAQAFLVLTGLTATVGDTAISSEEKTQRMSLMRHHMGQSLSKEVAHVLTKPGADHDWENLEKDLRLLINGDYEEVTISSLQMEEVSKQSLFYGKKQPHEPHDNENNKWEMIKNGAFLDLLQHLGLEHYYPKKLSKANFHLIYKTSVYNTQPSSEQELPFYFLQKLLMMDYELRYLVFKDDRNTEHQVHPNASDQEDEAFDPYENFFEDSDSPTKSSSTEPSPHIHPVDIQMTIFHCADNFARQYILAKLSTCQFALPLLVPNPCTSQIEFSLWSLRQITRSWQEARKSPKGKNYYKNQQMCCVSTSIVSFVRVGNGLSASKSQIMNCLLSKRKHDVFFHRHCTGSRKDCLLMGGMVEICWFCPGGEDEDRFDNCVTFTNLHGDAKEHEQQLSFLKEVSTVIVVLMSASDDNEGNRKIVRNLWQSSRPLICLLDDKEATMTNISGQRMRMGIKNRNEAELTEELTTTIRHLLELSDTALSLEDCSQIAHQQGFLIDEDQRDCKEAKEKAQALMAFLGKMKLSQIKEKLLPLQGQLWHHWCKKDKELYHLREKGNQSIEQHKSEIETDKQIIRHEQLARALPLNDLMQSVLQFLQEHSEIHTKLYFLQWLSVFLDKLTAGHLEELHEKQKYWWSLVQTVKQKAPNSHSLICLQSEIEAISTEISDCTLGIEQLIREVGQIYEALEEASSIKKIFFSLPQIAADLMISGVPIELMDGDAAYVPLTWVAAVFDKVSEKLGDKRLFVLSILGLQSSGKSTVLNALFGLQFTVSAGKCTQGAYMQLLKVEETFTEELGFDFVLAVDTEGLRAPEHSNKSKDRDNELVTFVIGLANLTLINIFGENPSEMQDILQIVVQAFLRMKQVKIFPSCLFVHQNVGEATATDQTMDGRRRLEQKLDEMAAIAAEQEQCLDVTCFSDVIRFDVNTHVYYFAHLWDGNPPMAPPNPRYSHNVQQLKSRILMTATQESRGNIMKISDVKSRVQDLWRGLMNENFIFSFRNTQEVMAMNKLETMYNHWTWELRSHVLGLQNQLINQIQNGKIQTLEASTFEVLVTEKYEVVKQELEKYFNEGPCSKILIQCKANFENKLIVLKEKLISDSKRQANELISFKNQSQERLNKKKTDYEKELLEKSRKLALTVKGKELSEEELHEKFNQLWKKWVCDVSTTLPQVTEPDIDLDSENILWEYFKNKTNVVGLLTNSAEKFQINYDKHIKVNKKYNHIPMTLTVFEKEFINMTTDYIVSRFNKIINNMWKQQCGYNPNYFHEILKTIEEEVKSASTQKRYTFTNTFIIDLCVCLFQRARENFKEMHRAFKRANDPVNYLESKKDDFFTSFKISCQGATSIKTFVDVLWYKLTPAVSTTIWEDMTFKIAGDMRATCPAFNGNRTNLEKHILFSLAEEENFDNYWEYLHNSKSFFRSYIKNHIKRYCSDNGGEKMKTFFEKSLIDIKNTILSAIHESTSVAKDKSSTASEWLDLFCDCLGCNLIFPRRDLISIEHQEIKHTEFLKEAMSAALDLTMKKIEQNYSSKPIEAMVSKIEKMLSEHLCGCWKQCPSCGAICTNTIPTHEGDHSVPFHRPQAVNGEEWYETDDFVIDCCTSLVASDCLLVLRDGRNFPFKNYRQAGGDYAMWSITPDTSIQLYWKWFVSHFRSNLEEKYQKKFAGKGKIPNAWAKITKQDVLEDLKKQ
Chain of CHKA (P35790 75-457 limits assumed): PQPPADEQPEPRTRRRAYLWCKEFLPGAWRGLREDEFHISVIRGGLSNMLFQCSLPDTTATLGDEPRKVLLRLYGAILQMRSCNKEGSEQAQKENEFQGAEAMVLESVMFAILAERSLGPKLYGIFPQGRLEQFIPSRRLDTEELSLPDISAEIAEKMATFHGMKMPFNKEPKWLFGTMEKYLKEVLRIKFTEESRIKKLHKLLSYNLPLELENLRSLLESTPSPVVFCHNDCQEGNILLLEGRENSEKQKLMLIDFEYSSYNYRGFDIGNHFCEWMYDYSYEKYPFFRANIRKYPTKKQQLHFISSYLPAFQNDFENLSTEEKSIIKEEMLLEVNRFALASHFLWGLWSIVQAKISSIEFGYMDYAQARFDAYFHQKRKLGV

For the compound `COc1cc2c(NC3CCN(C(C)C)CC3)nc(C3CCCCC3)nc2cc1OCCCN1CCCC1` [UNC0638], the “effect_CETSA_Intact (PISA amplitude), GVINP1” value at GVINP1 is reported as 0.358. Further, the “thermal stabilisation of CHKA (DSF)” value at CHKA is “thermal stabilisation”.
The matching figures for `COc1cc2c(N(C)C3CCN(C(C)C)CC3)nc(C3CCCCC3)nc2cc1OCCCN1CCCC1` [UNC0737]: 0.871 and “thermal stabilisation”.
